Assay [1] has as its target Glutamate NMDA receptor.
Description: Displacement of [3H]CGP39653 from NMDA receptor in rat brain homogenate after 60 mins by Packard TopCount microplate scintillation counting method
Assay [2] addresses Glutamate receptor ionotropic, kainate 1 (Rattus norvegicus, UniProt P22756). Put plainly: biochemical.
Description: Displacement of [3H]SYM2081 from recombinant rat GluK1(Q)1b receptor expressed in sf9 cells incubated for 1 to 2 hrs by liquid scintillation counting method
The target of assay [3] is T1, Glutamate receptor 2 (Homo sapiens, UniProt P42262). In words: Agonist activity at human GluA2(Q)i expressed in HEK293 cells assessed as enhancement of glutamate-evoked desensitized current by whole cell patch clamp method. It is filed as cell-based. A general note: In patch-clamp work, channel activity is measured electrically.
Assay [4] has as its target Glutamate receptor 1 (Rattus norvegicus, UniProt P19490). In words: biochemical.
Description: Displacement of [3H]AMPA from rat cloned GluA1o receptor expressed in sf9 cells incubated for 1 to 2 hrs by liquid scintillation counting method
Assay [5] concerns the target Glutamate receptor ionotropic, kainate 2 (Rattus norvegicus, UniProt P42260). In words: biochemical.
Description: Displacement of [3H]SYM2081 from cloned rat GluK2(V,C,R)A receptor expressed in sf9 cells incubated for 1 to 2 hrs by liquid scintillation counting method
Assay [6] addresses T2, Glutamate receptor 2 (Rattus norvegicus, UniProt P19491). In words: Displacement of [3H]AMPA from full length rat cloned GluA2(R)o receptor expressed in sf9 cells incubated for 1 to 2 hrs by liquid scintillation counting method. On the technique in general: Loss of bound radioactivity is the signal in a displacement assay; it reports binding, not function.
Assay [7] addresses Glutamate receptor 3 (Rattus norvegicus, UniProt P19492). In words: biochemical.
Description: Displacement of [3H]AMPA from rat cloned GluA3o receptor expressed in sf9 cells incubated for 1 to 2 hrs by liquid scintillation counting method
In assay [8] the target is Glutamate receptor ionotropic, kainate 3 (Rattus norvegicus, UniProt P42264). Put plainly: biochemical.
Description: Displacement of [3H]SYM2081 from cloned rat GluK3A receptor expressed in sf9 cells incubated for 1 to 2 hrs by liquid scintillation counting method
Assay [9] addresses T1, Glutamate receptor 2. In words: Displacement of [3H]AMPA from GluA2 LBD (unknown origin) incubated for 2 hrs by liquid scintillation counting method.
For assay [10], the target named is T2, Glutamate receptor 2. In words: Antagonist activity against recombinant rat GluA2(Q)i expressed in xenopus oocytes assessed as inhibition of L-glutamate-induced […] by two electrode voltage clamp method. Format: cell-based. For orientation: Calcium assays in cells follow changes in intracellular calcium, usually with a dye or a luminescent sensor.

The values below come from ChEMBL document CHEMBL3758128, “Studies on Aryl-Substituted Phenylalanines: Synthesis, Activity, and Different Binding Modes at AMPA Receptors” (J Med Chem, 2016).

Glutamate receptor ionotropic, kainate 2, sequence (P42260 whole entry): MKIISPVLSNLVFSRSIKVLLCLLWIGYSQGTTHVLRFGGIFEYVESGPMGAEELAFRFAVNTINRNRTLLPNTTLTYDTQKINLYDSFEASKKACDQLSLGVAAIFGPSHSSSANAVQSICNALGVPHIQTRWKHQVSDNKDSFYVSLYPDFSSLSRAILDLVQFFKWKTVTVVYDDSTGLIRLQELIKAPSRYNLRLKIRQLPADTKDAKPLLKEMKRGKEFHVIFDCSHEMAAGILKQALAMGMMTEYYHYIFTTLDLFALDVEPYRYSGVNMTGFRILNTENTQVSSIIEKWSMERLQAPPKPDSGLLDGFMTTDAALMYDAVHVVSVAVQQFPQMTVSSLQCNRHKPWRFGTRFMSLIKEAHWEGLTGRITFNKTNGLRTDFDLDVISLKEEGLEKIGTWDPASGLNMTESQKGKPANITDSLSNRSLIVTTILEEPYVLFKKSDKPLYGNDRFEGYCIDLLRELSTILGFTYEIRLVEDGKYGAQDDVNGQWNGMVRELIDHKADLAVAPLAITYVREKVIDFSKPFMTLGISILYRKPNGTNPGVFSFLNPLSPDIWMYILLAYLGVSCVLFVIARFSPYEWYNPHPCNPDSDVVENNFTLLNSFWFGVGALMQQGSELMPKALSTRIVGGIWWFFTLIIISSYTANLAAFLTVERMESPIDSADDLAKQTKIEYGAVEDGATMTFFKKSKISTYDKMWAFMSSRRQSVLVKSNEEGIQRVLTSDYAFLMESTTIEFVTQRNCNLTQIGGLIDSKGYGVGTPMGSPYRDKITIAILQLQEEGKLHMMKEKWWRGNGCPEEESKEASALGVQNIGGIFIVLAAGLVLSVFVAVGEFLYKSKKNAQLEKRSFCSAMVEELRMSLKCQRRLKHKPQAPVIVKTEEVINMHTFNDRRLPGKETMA
T2 sequence (P19491 whole entry): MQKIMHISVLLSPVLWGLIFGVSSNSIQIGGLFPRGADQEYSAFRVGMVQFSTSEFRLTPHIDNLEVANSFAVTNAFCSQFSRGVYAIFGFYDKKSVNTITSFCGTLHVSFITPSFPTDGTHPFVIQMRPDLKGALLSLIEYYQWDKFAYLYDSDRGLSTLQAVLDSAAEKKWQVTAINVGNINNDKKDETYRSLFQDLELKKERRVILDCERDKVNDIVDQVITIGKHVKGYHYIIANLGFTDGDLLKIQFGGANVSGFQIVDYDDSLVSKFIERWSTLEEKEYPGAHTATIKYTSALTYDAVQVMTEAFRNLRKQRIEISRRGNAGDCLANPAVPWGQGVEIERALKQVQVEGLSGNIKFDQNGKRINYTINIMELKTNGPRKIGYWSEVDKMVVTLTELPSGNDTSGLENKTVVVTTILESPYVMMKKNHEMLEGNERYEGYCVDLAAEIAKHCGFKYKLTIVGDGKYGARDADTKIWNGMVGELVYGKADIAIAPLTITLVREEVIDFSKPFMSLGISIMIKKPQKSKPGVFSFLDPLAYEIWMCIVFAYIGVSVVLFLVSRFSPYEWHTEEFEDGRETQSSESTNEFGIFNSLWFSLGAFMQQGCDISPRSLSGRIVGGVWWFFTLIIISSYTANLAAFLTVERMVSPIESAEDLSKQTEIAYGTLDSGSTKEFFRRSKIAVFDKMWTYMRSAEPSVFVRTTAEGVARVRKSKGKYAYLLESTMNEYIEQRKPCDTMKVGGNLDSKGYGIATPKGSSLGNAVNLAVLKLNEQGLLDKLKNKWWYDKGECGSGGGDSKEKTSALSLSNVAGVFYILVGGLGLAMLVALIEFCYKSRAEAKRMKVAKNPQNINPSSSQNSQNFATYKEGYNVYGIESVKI
Glutamate receptor 1, sequence (P19490 whole entry): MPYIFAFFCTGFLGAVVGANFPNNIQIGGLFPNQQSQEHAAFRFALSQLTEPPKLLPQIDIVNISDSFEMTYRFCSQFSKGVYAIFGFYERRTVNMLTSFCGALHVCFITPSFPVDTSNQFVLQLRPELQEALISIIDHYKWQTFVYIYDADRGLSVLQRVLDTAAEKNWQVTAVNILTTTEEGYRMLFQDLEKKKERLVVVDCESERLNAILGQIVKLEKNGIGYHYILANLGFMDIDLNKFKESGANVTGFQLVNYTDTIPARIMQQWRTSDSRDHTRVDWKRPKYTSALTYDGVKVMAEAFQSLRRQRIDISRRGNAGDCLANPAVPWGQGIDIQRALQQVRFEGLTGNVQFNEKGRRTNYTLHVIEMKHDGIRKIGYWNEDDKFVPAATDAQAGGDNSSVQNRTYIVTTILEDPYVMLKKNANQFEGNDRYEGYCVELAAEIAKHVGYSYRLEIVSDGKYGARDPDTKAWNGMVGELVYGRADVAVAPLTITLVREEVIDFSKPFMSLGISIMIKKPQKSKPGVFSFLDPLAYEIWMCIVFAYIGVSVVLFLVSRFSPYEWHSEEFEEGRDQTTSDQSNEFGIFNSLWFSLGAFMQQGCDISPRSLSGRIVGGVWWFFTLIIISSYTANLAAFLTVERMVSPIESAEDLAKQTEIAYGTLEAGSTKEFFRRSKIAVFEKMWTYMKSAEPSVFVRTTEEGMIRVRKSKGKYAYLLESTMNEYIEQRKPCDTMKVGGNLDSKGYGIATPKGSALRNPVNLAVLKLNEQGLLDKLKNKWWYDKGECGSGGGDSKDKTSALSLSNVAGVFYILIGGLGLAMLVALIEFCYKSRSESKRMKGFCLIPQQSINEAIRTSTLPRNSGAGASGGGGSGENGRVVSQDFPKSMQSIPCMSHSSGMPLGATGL
Glutamate receptor ionotropic, kainate 1, sequence (P22756 whole entry): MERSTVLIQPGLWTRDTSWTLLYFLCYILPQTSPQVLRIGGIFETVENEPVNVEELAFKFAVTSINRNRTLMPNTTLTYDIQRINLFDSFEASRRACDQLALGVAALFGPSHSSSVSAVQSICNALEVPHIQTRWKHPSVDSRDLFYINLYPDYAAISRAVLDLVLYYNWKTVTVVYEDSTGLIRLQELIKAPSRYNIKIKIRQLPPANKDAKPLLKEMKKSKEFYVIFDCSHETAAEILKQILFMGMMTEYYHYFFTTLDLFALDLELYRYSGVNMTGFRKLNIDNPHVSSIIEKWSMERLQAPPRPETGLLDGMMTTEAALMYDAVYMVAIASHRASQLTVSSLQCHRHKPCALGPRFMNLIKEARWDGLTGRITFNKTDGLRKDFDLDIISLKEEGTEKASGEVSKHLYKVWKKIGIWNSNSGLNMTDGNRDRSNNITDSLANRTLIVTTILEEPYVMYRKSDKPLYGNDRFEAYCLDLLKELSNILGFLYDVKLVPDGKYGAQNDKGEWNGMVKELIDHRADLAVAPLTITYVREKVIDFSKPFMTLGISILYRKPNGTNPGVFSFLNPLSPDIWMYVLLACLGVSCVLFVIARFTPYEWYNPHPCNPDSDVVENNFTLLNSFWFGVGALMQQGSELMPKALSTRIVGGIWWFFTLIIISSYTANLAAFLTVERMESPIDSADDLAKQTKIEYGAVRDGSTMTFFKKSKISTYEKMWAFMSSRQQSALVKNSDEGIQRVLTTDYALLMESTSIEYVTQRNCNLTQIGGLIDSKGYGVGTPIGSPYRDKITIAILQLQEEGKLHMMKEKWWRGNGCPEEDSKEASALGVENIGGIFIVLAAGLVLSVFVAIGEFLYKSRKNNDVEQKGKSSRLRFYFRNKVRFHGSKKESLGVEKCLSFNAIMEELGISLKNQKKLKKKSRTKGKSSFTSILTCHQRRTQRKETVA
Glutamate receptor ionotropic, kainate 3, sequence (P42264 whole entry, the tested form may be a part): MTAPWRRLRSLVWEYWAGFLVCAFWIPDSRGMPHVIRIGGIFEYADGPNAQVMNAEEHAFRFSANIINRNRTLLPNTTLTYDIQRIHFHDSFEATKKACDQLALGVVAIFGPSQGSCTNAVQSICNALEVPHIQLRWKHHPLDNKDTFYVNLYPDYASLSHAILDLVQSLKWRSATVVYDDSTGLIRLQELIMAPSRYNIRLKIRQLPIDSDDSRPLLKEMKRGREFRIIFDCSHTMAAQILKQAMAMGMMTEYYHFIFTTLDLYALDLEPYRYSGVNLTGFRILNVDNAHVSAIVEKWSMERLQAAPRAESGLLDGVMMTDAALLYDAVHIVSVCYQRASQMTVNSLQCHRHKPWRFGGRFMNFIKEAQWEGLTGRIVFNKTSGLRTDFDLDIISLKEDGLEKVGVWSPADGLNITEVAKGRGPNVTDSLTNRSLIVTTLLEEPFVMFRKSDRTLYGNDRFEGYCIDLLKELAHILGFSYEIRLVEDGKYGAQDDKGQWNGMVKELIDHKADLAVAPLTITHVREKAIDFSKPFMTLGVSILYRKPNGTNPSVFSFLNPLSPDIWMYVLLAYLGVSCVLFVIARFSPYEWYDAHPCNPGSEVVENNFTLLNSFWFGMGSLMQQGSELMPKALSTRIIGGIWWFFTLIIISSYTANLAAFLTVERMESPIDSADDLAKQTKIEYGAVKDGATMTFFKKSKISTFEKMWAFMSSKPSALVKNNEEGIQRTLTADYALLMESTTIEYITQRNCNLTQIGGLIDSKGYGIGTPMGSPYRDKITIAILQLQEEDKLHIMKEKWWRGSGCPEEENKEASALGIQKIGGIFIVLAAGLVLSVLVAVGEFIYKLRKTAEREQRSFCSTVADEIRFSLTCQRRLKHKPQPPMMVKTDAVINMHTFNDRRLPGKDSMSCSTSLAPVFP
T1 sequence (P42262 whole entry): as the sequence (P19491 whole entry) above, with T191M, A291T, G764R, P852A counted along it

The term Ki denotes a measure of affinity in units of concentration, obtained from inhibition or displacement. Low values mean a stronger hold on the target, high ones a looser hold on the target. Turning to `Nc1cccc(-c2cc(CC(N)C(=O)O)cc(Cl)c2Cl)c1` (racemic), the Ki in assay [1] and in [2] was above 50 µM each time.
For `NC(Cc1cc(Cl)c(Cl)c(-c2ccc(CO)cc2)c1)C(=O)O` (racemic), the inhibition constant Ki in assay [1] and in assay [2] was above 50 µM each time.
The term EC50 denotes the concentration giving half of the maximal effect. Consider `NS(=O)(=O)c1cc2c(cc1Cl)NC(C1CC3C=CC1C3)NS2(=O)=O` (stereo not given) [CYCLOTHIAZIDE], for which, in [3], the EC50 came to 7.6 µM.
For the compound `NC(Cc1cc(Cl)c(Cl)c(-c2cncc(O)c2)c1)C(=O)O` (racemic), the Ki in assay [1] and in assay [2] was above 50 µM in each case.
On to `NC(Cc1cc(Cl)c(Cl)c(-c2ccc3c(c2)OCCO3)c1)C(=O)O` (racemic), for which the Ki in [1] and in [2] was above 50 µM in each case.
As for `NC(Cc1cc(Cl)c(Cl)c(-c2ccc(O)c(O)c2)c1)C(=O)O` (stereo not given), the Ki in assay [1] and in assay [2] was above 50 µM throughout.
On to `NC(Cc1cc(Cl)c(Cl)c(-c2ccc(S(N)(=O)=O)cc2)c1)C(=O)O` (racemic), for which the inhibition constant Ki in assay [1] and in [2] was above 50 µM in each case.
Take `NC(Cc1cc(Cl)c(Cl)c(-c2cccc(S(N)(=O)=O)c2)c1)C(=O)O` (racemic): the Ki in [1] and in assay [2] was above 50 µM in each case.
In the case of `NC(Cc1cc(Cl)c(Cl)c(-c2cccc(O)c2)c1)C(=O)O` (racemic), the Ki in [4] stood at 17.1 µM; in assay [5] it was 78.1 µM; in assay [6] it was 5.03 µM; in assay [7], 55.1 µM; in [8] it was 52.3 µM; in assay [2], 92.3 µM.
`NC(Cc1cc(Cl)c(Cl)c(-c2cc(O)cc(O)c2)c1)C(=O)O` (racemic): the inhibition constant Ki in assay [1] and in assay [2] was above 50 µM each time.
Consider `NC(Cc1cc(Cl)c(Cl)c(-c2ccc(O)nc2)c1)C(=O)O` (racemic), for which the Ki in [1] and in [2] was above 50 µM each time.
The term IC50 denotes the concentration that inhibits the measured activity by half. Regarding `N[C@@H](Cc1cc(Cl)c(Cl)c(-c2cncc(O)c2)c1)C(=O)O`, the Ki was 6.65 µM in [4]; above 100 µM in assay [5]; 1.74 µM in [6]; 6.88 µM in assay [7]; 2.26 µM in assay [9]; above 50 µM in assay [1]. In addition, the Ki in assay [8] and in assay [2] was above 100 µM in each case. Further, in assay [10], the 50% inhibitory concentration (IC50) amounted to 3.7 µM.
On to `N[C@H](Cc1cc(Cl)c(Cl)c(-c2cncc(O)c2)c1)C(=O)O`, for which the Ki was above 100 µM in assay [4]; above 100 µM in assay [5]; above 100 µM in [6]; above 100 µM in [7]; above 50 µM in [1]; above 100 µM in assay [8]. In addition, the Ki in assay [2] was above 100 µM.
In the case of `NC(Cc1cc(Cl)c(Cl)c(-c2cccc(CO)c2)c1)C(=O)O` (racemic), the Ki in assay [1] and in assay [2] was above 50 µM in each case.
Take `COc1cccc(-c2cc(CC(N)C(=O)O)cc(Cl)c2Cl)c1` (racemic): the Ki in assay [1] and in assay [2] was above 50 µM throughout.
